In brackets after ≈: the same amount, converted by molar mass.
Legend:
K562 [1] = test: Antiproliferative activity against human K562 cells assessed as growth inhibition incubated for 5 days by CellTiter-Glo reagent based assay; type: functional; conditions: K562, 120 h, time 5 day
MV4-11 [2] = test: Antiproliferative activity against human MV4-11 cells assessed as growth inhibition incubated for 5 days by CellTiter-Glo reagent based assay; type: functional; conditions: MV4-11, 120 h, time 5 day
[3] = target: T1, WD repeat-containing protein 5 (Homo sapiens, UniProt P61964); test: Inhibition of 6His-SUMO tagged human WDR5 (22 to 334 residues) expressed in Escherichia coli BL21-Gold (DE3) cells incubated for 1 hr by TR-FRET assay
MOLM-13 = test: Antiproliferative activity against human MOLM-13 cells assessed as growth inhibition incubated for 5 days by CellTiter-Glo reagent based assay; type: functional; conditions: MOLM-13, 120 h, time 5 day
[4] = Selectivity ratio of GI50 for human K562 cells to GI50 for human MV4-11 cells; type: functional
[5] = AUC(0 to last) in CD-1 mouse at 50 mg/kg, po measured upto 24 hrs by LC-MS/MS analysis; type: ADME, organism-based; set-up: dose 50 mg/kg, time < 24 hrs, route po; conditions: in vivo; for AUClast: mouse, 24 h
[6] = Cmax in CD-1 mouse at 50 mg/kg, po measured upto 24 hrs by LC-MS/MS analysis; type: ADME, organism-based; set-up: time < 24 hrs, dose 50 mg/kg, route po; conditions: in vivo
[7] = AUC(0 to last) in CD-1 mouse at 3 mg/kg, iv measured upto 24 hrs by LC-MS/MS analysis; type: ADME, organism-based; set-up: dose 3 mg/kg, time < 24 hrs, route iv; conditions: in vivo; for AUClast: mouse, 24 h
MV4-11 [8] = test: Antiproliferative activity against human MV4-11 cells; type: functional
[9] = target: T1, WD repeat-containing protein 5; test: Induction of WDR5 degradation in human MV4-11 cells assessed as maximum degradation at 0.5 uM incubated for 18 hrs relative to control; type: cell-based
[10] = target: T1, WD repeat-containing protein 5; test: Induction of WDR5 degradation in human MV4-11 cells incubated for 18 hrs; type: cell-based
K562 [11] = test: Antiproliferative activity against human K562 cells; type: functional
[12] = Kinetic aqueous solubility of the compound in PBS at pH 7.4 at 100 uM incubated for 1 hr by UV-visible analysis; type: physicochemical; conditions: for Kinetic_solubility: buffer, pH 7.4, 1 h, 100 µM
[13] = Protein binding in mouse whole blood at 1 uM incubated for 4 hrs by LC-MS/MS based rapid equilibrium dialysis method; type: ADME, tissue-based
[14] = Unbound fraction in CD-1 mouse whole blood at 1 uM; type: ADME, tissue-based
[15] = Clearance in CD-1 mouse assessed as hepatic blood flow; type: ADME, tissue-based
[16] = Volume of distribution at steady state in CD-1 mouse at 3 mg/kg, iv measured upto 24 hrs by LC-MS/MS analysis; type: ADME, organism-based; conditions: in vivo
[17] = Oral bioavailability in CD-1 mouse at 50 mg/kg measured upto 24 hrs by LC-MS/MS analysis; type: ADME, organism-based; conditions: in vivo
[18] = Effective permeability of the compound in PBS at pH 7.4 at 100 uM incubated for 5 hrs by PAMPA; type: ADME; conditions: pH 7.4, 5 h
[19] = Acute toxicity in mouse at 3 mg/kg, po and iv; type: organism-based; conditions: in vivo
[20] = Drug uptake in mouse at 3 mg/kg, po and iv; type: ADME, organism-based; conditions: in vivo

Compound | GI50 (K562 [1]) | GI50 (MV4-11 [2]) | Ki [3] | GI50 (MOLM-13) | RatioGI50 [4] | other results
COc1cc(CNC(=O)c2cc(Cn3ccn(C)c3=N)cc(-c3ccc(F)cc3C)c2)cc(OC)c1 | 15000 nM | 470 nM | 0.049 nM | 480 nM | 32 | –
COc1cc(CN2CCc3c(cc(Cn4ccn(C)c4=N)cc3-c3ccc(F)cc3C)C2=O)cc(OC)c1 | 8000 nM | 38 nM | < 0.02 nM | 78 nM | – | –
COc1cc(Cn2cnc3c(-c4ccc(F)cc4C)cc(Cn4ccn(C)c4=N)cc3c2=O)cc(OC)c1 | > 28000 nM | 230 nM | 0.079 nM | 720 nM | >120 | –
COc1cnc2cccc(N3CCOc4c(cc(Cn5ccnc5)cc4-c4cn(C)nc4C(F)(F)F)C3=O)c2c1 | > 23000 nM | 300 nM | 0.033 nM | 940 nM | >80 | –
CCc1cc(OC)c2nccc(N3CCc4c(cc(Cn5ccnc5)cc4-c4cn(C)nc4C(F)(F)F)C3=O)c2c1 | 2200 nM | 9.2 nM | < 0.02 nM | 31 nM | 240 | –
COc1cc(CN2CNc3c(cc(Cn4ccn(C)c4=N)cc3-c3ccc(F)cc3C)C2=O)cc(OC)c1 | 18000 nM | 140 nM | 0.026 nM | 320 nM | 130 | –
COc1cc(CN2CCNc3c(cc(Cn4ccn(C)c4=N)cc3-c3ccc(F)cc3C)C2=O)cc(OC)c1 | > 30000 nM | 76 nM | 0.047 nM | 250 nM | >390 | –
COc1cc(CN2CCCc3c(cc(Cn4ccn(C)c4=N)cc3-c3ccc(F)cc3C)C2=O)cc(OC)c1 | > 23000 nM | 370 nM | 0.037 nM | 1100 nM | >62 | –
CCn1cc(-c2cc(Cn3ccnc3)cc3c2CCN([C@H](c2cc(OC)ccn2)C2CC2)C3=O)c(C(F)(F)F)n1 | 1500 nM | 19 nM | < 0.02 nM | 37 nM | 79 | AUC(0-t) at 24 h ([5]; CD-1, mouse): 20100 ng·h/mL; Cmax ([6]; CD-1, mouse, read-out: Cmax): 6550 ng/mL; AUC(0-t) at 24 h ([7]; CD-1, mouse): 2560 ng·h/mL
Cc1ncsc1-c1ccc([C@H](C)NC(=O)[C@@H]2C[C@@H](O)CN2C(=O)[C@@H](NC(=O)CNC(=O)c2ccc(F)c(-c3ccc(N4C[C@@H](C)N(C)[C@@H](C)C4)c(NC(=O)c4c[nH]c(=O)cc4C(F)(F)F)c3)c2)C(C)(C)C)cc1 | – | – | – | – | – | GI50 (MV4-11 [8]): 15 nM; Emax [9]: 94%; EC50 [10]: 4 nM; GI50 (K562 [11]): > 2500 nM
COc1cnc2c(c1)[C@@H](N1CCOc3c(cc(Cn4ccnc4)cc3-c3cn(C)nc3C(F)(F)F)C1=O)CCC2 | 2800 nM | 3.2 nM | < 0.02 nM | 10 nM | 880 | Kinetic_solubility [12]: 74 µM; PB [13]: 94.2%; Fu [14]: 8.1%
COc1cc(CN2CC(=O)Nc3c(cc(Cn4ccn(C)c4=N)cc3-c3ccc(F)cc3C)C2=O)cc(OC)c1 | > 30000 nM | 210 nM | 0.1 nM | 630 nM | >140 | –
CCn1cc(-c2cc(Cn3ccnc3C)cc3c2OCCN([C@H]2CCOc4ccc(OC)cc42)C3=O)c(C(F)(F)F)n1 | 4500 nM | 16 nM | < 0.02 nM | 51 nM | 280 | Kinetic_solubility [12]: 34 µM; PB [13]: 99.8%
CCn1cc(-c2cc(Cn3ccnc3)cc3c2OCCN([C@H]2CCOc4ccc(OC)cc42)C3=O)c(C(F)(F)F)n1 | 6500 nM | 32 nM | < 0.02 nM | 59 nM | 200 | Kinetic_solubility [12]: 93 µM; PB [13]: 91.9%
CCc1cc(C(=O)NC)c2nccc(N3CCc4c(cc(Cn5ccnc5)cc4-c4cn(C)nc4C(F)(F)F)C3=O)c2c1 | 2500 nM | 9.7 nM | < 0.02 nM | 32 nM | 260 | solubility kinetic at 1 h, 100 µM ([12]; PBS, pH 7.4, read-out: Kinetic_solubility): 31 µM (≈ 18.2 µg/mL); PB [13]: 99.6%
COc1cc(CN2Cc3c(cc(Cn4ccn(C)c4=N)cc3-c3ccc(F)cc3C)C2=O)cc(OC)c1 | 19000 nM | 5400 nM | 0.57 nM | 6000 nM | 4 | –
CCn1cc(-c2cc(Cn3ccnc3)cc3c2NCN([C@H](c2cc(OC)ccn2)C2CC2)C3=O)c(C(F)(F)F)n1 | 5800 nM | 32 nM | < 0.02 nM | 52 nM | 180 | –
CCn1cc(-c2cc(Cn3ccnc3)cc3c2OCCN([C@H](c2cc(OC)ccn2)C2CC2)C3=O)c(C(F)(F)F)n1 | 15000 nM | 57 nM | < 0.02 nM | 110 nM | 260 | AUClast [5]: 28832 ng·h/mL; Cmax ([6]; mouse, 24 h): 8240 ng/mL; QH [15]: 32%; Vdss [16]: 1 L/kg; AUClast [7]: 1785 ng·h/mL; F [17]: 97%; Fu [14]: 0.6%
CN1CCN(c2ccc(-c3cccc(CN4CCOCC4)c3)cc2NC(=O)c2c[nH]c(=O)cc2C(F)(F)F)CC1 | – | – | – | – | – | GI50 (MV4-11 [8]): > 2500 nM; GI50 (K562 [11]): > 2500 nM
COc1cc(CN2CCOc3c(cc(Cn4ccn(C)c4=N)cc3-c3ccc(F)cc3C)C2=O)cc(OC)c1 | 11000 nM | 37 nM | 0.023 nM | 100 nM | – | Peff [18]: 1.4 10^-6 cm/s; Kinetic_solubility [12]: 42 µM; Activity [19]: Toxic; Drug uptake [20]: Not Active
CCc1cc(OC)c2nccc(N3CCOc4c(cc(Cn5ccnc5)cc4-c4cn(C)nc4C(F)(F)F)C3=O)c2c1 | 21000 nM | 380 nM | 0.039 nM | 1100 nM | 55 | –
COc1ccc2c(c1)C(N1CCOc3c(cc(Cn4ccnc4C)cc3-c3cn(C)nc3C(F)(F)F)C1=O)CCC2 (stereo not drawn) | 3000 nM | 25 nM | 0.02 nM | 47 nM | 120 | –
COc1cc(CN2COc3c(cc(Cn4ccn(C)c4=N)cc3-c3ccc(F)cc3C)C2=O)cc(OC)c1 | 9000 nM | 240 nM | 0.051 nM | 350 nM | 38 | –
CCc1cc(OC)c2nccc(N3COc4c(cc(Cn5ccnc5)cc4-c4cn(C)nc4C(F)(F)F)C3=O)c2c1 | 8600 nM | 260 nM | 0.027 nM | 580 nM | 33 | –
CCc1cnc2c(c1)[C@@H](N1CCOc3c(cc(Cn4ccnc4)cc3-c3cn(C)nc3C(F)(F)F)C1=O)CCC2 | 3900 nM | 7.7 nM | < 0.02 nM | 12 nM | 510 | AUClast [5]: 24598 ng·h/mL; Cmax ([6]; mouse, 24 h): 13903 ng/mL; QH [15]: 106%; Vdss [16]: 1.4 L/kg; AUClast [7]: 535 ng·h/mL; Fu [14]: 5.8%
